Assays:
Assay type in all cases: cell-based
TLR4 = target: T1, TLR4 (Homo sapiens, UniProt O00206); test: TLR4 antagonism assay, HEK-TLR4-MD2-ELAM luciferase reporter cells stimulated with LPS plus soluble CD14; conditions: Table 6, 10 ng/mL LPS plus 10 nM soluble CD14, 18 hours
T1 construct: expressed in transfected cells
Experimental: (§1) Either Pam3CSK4 and R-MALP-2 lipopeptides (EMC-Microcollections), or lipopolysaccharide (LPS, List Biologicals) are dissolved in water to a concentration of 1 mg/mL, sonicated 5 times for 30 seconds, and stored in aliquots at −20° C. Prior to addition to cells, an aliquot of the dissolved ligand is sonicated for 1 minute and then is diluted in medium to 2 ng/mL Pam3CSK4, 16 ng/mL R-MALP-2, or 100 ng/mL LPS. The final concentration in the assay is 0.2 ng/mL Pam3CSK4, 1.6 ng/mL R-MALP-2, or 10 ng/mL LPS.
(§2) The test compounds are stored as 30 mM stocks in […]. The final concentrations of the test compounds in the assay are 0.1, 0.3, 1, 3, 10, and 30 μM in 0.2% DMSO. 0.2% DMSO is used in the assay as a control.
HEK293 cells stably carrying plasmids for TLR4, MD2, and the NF-κB reporter gene ELAM-1-luciferase (HEK-TLR4-MD2-ELAM) were generated as described by Yang et al., J. Biol. Chem. 275:20861-20866, 2000.
Step 1. On day 1, HEK-TLR4-MD2-ELAM cells were plated at 4×10^5 cells/mL, 80 μL/well, in 96-well black plates. The growth medium used is D-MEM, 10% fetal bovine serum, 2 mM L-glutamine, 10 μg/mL Ciprofloxacin, 300 μg/mL Geneticin (G418), 150 μg/mL Zeocin, and 50 μg/mL Hygromycin.
Step 2. On day 2, 10 μL of each test compound is added to the wells, and 10 μL of LPS plus 10 nM soluble CD14 (Biometec) is added to all of the wells. The plates are then incubated at 37° C., 5% CO2, for 18 hours.
(§3) Step 3. On day 3, 25 μL of Steady-Glo reagent (Promega, Inc.) is added to each well. The plates are then shaken for 5 minutes, and the chemiluminescence of each well is read in a Wallac1450 MicroBetaTriLux counter. Dose-response curves were plotted in KaleidaGraph, version 3.5 Synergy Software, and IC50 values were calculated.

human TLR2 [1] = target: T2, human TLR2 (Homo sapiens, UniProt O60603); test: TLR2 antagonism assay, HEK-TLR2-ELAM luciferase reporter cells stimulated with Pam3CSK4
T2 construct: expressed in transfected cells
Experimental: as §1, §2
(§4) HEK-TLR2-ELAM cells were generated by a two-step method. In step 1, Hek293 cells were transfected with pcDNA3.0 encoding human TLR2 followed by antibiotic selection with G418 in D-MEM supplemented with 10% fetal bovine serum (Gibco BRL) to generate Hek-TLR2 cells. In step 2, Hek-TLR2 cells were transfected with pELAM-luc/Zeo followed by antibiotic selection with Zeocin in D-MEM supplemented with 10% fetal bovine serum. Transfectants were screened for TLR2 responsiveness by measuring ligand-induced pELAM-luciferase reporter activity, and analyzed for TLR2 mRNA expression by RT-PCR.
Step 1. On day 1, HEK-TLR2-ELAM cells are plated at 2×10^5 cells/mL, 80 μL/well, in 96-well black plates. The cells are incubated at 37° C., 5% CO2, for 24 hours. The growth medium used is D-MEM, 10% fetal bovine serum, 2 mM L-glutamine, 10 μg/mL Ciprofloxacin, 300 μg/mL Geneticin (G418), and 150 μg/mL Zeocin.
Step 2. On day 2, 10 μL of each test compound is added to the wells, and 10 μL lipopeptide is added to all of the wells. The plates are then incubated at 37° C., 5% CO2, for 18 hours.
as §3

human TLR2 [2] = target: T2, human TLR2; test: TLR2 antagonism assay, HEK-TLR2-ELAM luciferase reporter cells stimulated with R-MALP-2; conditions: Table 7, diacylated lipopeptide R-MALP-2 (TLR2 interacts with TLR6), 1.6 ng/mL
Experimental: as §1, §2
as §4, with “In step 2, Hek-TLR2 cells were transfected with pELAM-luc/Zeo followed by antibiotic selection with Zeocin in D-MEM supplemented with 10% fetal bovine serum.” left out, “RT-PCR. […]” for “RT-PCR.”
Step 3. […] The plates are then shaken for 5 minutes, and the chemiluminescence of each well is read in a Wallac1450 MicroBetaTriLux counter. Dose-response curves were plotted in KaleidaGraph, version 3.5 Synergy Software, and IC50 values were calculated. […]

[3] = Table 6, 0.2 ng/mL Pam3CSK4, 18 hours, ELAM-luciferase reporter
[4] = Table 7, triacylated lipopeptide Pam3CSK4 (TLR2 associates with TLR1), 0.2 ng/mL

T1 sequence (O00206 24-839): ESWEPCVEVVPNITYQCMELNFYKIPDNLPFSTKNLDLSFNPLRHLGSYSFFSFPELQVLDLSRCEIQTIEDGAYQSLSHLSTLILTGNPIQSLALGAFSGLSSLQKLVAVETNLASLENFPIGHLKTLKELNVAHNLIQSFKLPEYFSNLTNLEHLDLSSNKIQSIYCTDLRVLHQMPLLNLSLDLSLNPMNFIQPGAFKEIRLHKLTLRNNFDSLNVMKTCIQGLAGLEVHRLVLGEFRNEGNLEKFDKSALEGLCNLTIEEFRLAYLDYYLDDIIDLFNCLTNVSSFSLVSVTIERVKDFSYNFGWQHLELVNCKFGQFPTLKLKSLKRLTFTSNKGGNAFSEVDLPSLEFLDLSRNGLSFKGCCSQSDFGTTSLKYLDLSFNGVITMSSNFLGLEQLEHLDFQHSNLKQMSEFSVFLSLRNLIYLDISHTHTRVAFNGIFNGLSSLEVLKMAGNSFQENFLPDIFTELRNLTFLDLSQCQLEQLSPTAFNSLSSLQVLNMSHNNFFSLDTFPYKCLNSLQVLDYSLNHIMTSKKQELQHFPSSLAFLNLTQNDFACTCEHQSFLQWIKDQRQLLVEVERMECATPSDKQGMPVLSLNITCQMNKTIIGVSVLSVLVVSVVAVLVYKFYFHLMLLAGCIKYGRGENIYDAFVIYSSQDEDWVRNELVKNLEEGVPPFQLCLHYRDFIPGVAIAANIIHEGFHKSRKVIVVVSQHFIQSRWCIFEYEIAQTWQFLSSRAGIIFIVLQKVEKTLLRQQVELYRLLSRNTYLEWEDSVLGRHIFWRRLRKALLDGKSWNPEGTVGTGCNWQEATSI
T1 sequence (Q9Y6Y9 17-160 partner limits assumed): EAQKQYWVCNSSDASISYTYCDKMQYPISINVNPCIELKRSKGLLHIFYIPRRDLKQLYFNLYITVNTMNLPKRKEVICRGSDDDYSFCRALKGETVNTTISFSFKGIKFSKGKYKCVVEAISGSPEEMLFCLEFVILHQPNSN
T2 sequence (O60603 21-784): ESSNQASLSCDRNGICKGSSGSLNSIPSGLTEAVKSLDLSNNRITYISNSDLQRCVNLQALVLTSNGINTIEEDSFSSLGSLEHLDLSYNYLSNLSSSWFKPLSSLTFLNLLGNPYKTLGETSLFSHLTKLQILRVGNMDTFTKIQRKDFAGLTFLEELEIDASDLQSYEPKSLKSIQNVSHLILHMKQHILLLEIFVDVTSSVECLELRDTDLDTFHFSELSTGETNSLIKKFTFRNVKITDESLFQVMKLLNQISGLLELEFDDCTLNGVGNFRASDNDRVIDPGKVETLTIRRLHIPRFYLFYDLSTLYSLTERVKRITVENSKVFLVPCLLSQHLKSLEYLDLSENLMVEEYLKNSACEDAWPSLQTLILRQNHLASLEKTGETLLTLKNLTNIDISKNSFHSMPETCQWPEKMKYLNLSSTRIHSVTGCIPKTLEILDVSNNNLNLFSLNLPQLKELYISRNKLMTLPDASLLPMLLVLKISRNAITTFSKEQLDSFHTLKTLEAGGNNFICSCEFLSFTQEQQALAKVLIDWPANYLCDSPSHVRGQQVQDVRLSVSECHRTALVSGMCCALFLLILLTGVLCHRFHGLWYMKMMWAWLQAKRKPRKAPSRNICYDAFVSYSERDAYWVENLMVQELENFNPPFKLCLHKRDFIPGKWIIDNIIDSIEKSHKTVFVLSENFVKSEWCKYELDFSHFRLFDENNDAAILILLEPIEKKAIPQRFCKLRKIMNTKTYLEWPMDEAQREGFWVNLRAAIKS

| Structure (SMILES) | IC50 (TLR4) | IC50 (human TLR2 [1]; [3]) | IC50 (human TLR2 [2]) | IC50 (human TLR2 [1]; [4]) |
| --- | --- | --- | --- | --- |
| CCCCCCCCCCCCCCCC(=O)OC[C@H](CNC(=O)[C@@H](COP(=O)(O)OCCNC(=O)[C@@H](NC(=O)Cc1c[nH]c2ccc(OCc3ccccc3)cc12)[C@@H](C)CC)NC(C)=O)OC(=O)CCCCCCCCCCCCCCC [ER811261] | 1.8 µM | 0.5 µM | – | – |
| CCCCCCCCCCCCCCCCCCCC(=O)N[C@@H](COP(=O)(O)OCCNC(=O)[C@@H](NC(=O)Cc1c[nH]c2ccccc12)[C@@H](C)CC)C(=O)NCCC(O)CCCCCCCCCC (mixture of isomers) [ER811395] | 1.8 µM | 0.65 µM | – | – |
| CCCCCCCCCCCCCCCC(=O)N[C@@H](COP(=O)(O)OCCNC(=O)[C@@H](NC(=O)Cc1c[nH]c2ccccc12)[C@@H](C)CC)C(=O)NCCCOC(=O)CCCCCCCCCCC [ER811211] | 0.7 µM | 0.44 µM | – | – |
| CCCCCCCCCCCCCCCCCCCC(=O)N[C@@H](COP(=O)(O)OCCNC(=O)[C@@H](NC(=O)Cc1c[nH]c2ccc(OCc3ccccc3)cc12)C(C)C)C(=O)NCCC(O)CCCCCCCCCCCCC (mixture of isomers) [ER811254] | 3.6 µM | 0.77 µM | – | – |
| CCCCCCCCCCCCCCCCCCCC(=O)N[C@@H](COP(=O)(O)OCCNC(=O)[C@@H](NC(=O)Cc1c[nH]c2ccc(OCc3ccccc3)cc12)[C@@H](C)CC)C(=O)NCCC(O)CCCCCCCCCCCCC (mixture of isomers) [ER812011] | 6.6 µM | – | – | – |
| CCCCCCCCCCCCCCCCCCCC(=O)N[C@@H](COP(=O)(O)OCCNC(=O)[C@@H](NC(=O)Cc1c[nH]c2ccccc12)[C@@H](C)CC)C(=O)NCCC(O)CCCCCCCCCCCCC (mixture of isomers) [ER811393] | 12.3 µM | – | – | – |
| CCCCCCCCCCCCCC(=O)N[C@H](COCC[C@@H](CCCCCCC)OC(=O)CCCCCCCCCCC)COP(=O)(O)OCCNC(=O)[C@@H](NC(=O)Cc1c[nH]c2ccccc12)[C@@H](C)CC [ER808977] | – | – | 20 µM | 0.24 µM |
| CCCCCCCCCCCCCCCC(=O)N[C@@H](COP(=O)(O)OCCNC(=O)[C@@H](NC(=O)Cc1c[nH]c2ccc(Br)cc12)[C@@H](C)CC)C(=O)NCCCOC(=O)CCCCCCCCCCC [ER811232] | 0.4 µM | 0.75 µM | – | – |
| CCCCCCCCCCCCCCCC(=O)N[C@@H](COP(=O)(O)OCCNC(=O)[C@@H](NC(=O)Cc1c[nH]c2ccc(-c3ccccc3)cc12)[C@@H](C)CC)C(=O)NCCCOC(=O)CCCCCCCCCCC [ER811243] | 0.2 µM | – | – | – |
| CCCCCCCCCCCCCCCC(=O)OC[C@H](CNC(=O)[C@H](COP(=O)(O)OCCNC(=O)[C@@H](NC(=O)Cc1c[nH]c2ccc(OCc3ccccc3)cc12)[C@@H](C)CC)NC(C)=O)OC(=O)CCCCCCCCCCCCCCC [ER811245] | 3.4 µM | 0.43 µM | 30 µM | 0.44 µM |
| CCCCCCCCCCCCCCCC(=O)OCCCNC(=O)C(COP(=O)(O)OCCNC(=O)[C@@H](NC(=O)Cc1c[nH]c2ccccc12)[C@@H](C)CC)NC(=O)CCCCCCCCCCC (stereo partly drawn) [ER811212] | 1 µM | 0.39 µM | – | – |
